Inconclusive results and toxic doses are left out.
System: BDF1 mice, P388 leukemia ip, median survival T/C
Assay: NCI In Vivo Anticancer Drug Screen. Data for tumor model P388 Leukemia (intraperitoneal) in B6D2F1 (BDF1) mice
Conditions: endpoint: median survival time, higher = longer survival
How it was run: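 Survival ratio, drug arm over vehicle arm, in mice with a transplanted tumour.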

[1] = dose: 50.0 mg/kg/injection, schedule: Q01DX009 (ip), vehicle: Klucel (hydroxypropylcellulose) (HPC)
[2] = dose: 25.0 mg/kg/injection, schedule: Q01DX009 (ip), vehicle: saline
[3] = dose: 50.0 mg/kg/injection, schedule: Q01DX009 (ip), vehicle: saline
[4] = dose: 12.5 mg/kg/injection, schedule: Q01DX009 (ip), vehicle: Klucel (hydroxypropylcellulose) (HPC)
[5] = dose: 50.0 mg/kg/injection, schedule: Q01DX009 (ip), vehicle: saline with Tween-80
[6] = dose: 100.0 mg/kg/injection, schedule: Q01DX009 (ip), vehicle: saline with Tween-80
[7] = dose: 200.0 mg/kg/injection, schedule: Q01DX009 (ip), vehicle: saline with Tween-80
[8] = dose: 100.0 mg/kg/injection, schedule: Q04DX003 (ip), vehicle: saline with Tween-80
[9] = dose: 200.0 mg/kg/injection, schedule: Q04DX003 (ip), vehicle: saline with Tween-80
[10] = dose: 400.0 mg/kg/injection, schedule: Q01DX009 (ip), vehicle: saline with Tween-80
[11] = dose: 400.0 mg/kg/injection, schedule: Q04DX003 (ip), vehicle: saline with Tween-80
[12] = dose: 25.0 mg/kg/injection, schedule: Q04DX003 (ip), vehicle: saline with Tween-80
[13] = dose: 50.0 mg/kg/injection, schedule: Q04DX003 (ip), vehicle: saline with Tween-80
[14] = dose: 6.25 mg/kg/injection, schedule: Q01DX009 (ip), vehicle: saline
[15] = dose: 12.5 mg/kg/injection, schedule: Q01DX009 (ip), vehicle: saline
[16] = dose: 100.0 mg/kg/injection, schedule: Q04DX003 (ip), vehicle: saline
[17] = dose: 200.0 mg/kg/injection, schedule: Q04DX003 (ip), vehicle: saline
[18] = dose: 400.0 mg/kg/injection, schedule: Q04DX003 (ip), vehicle: saline
[19] = dose: 100.0 mg/kg/injection, schedule: Q01DX009 (ip), vehicle: saline
[20] = dose: 50.0 mg/kg/injection, schedule: Q04DX003 (ip), vehicle: saline

CC(CCCc1ccccc1)(C(=O)O)C(=O)O
T/C (dose: 100.0 mg/kg/injection, schedule: Q04DX002 (ip), vehicle: saline with Tween-80): 96 % of control
T/C (dose: 200.0 mg/kg/injection, schedule: Q04DX002 (ip), vehicle: saline with Tween-80): 98 % of control
T/C (dose: 400.0 mg/kg/injection, schedule: Q04DX002 (ip), vehicle: saline with Tween-80): 102 % of control

C=C(C)[C@@H]1CC[C@]2(C)CC[C@]3(C)[C@H](CC[C@@H]4[C@@]5(C)CC[C@H](O)C(C)(C)[C@@H]5CC[C@]43C)[C@@H]12
T/C [1]: 93 % of control
T/C (dose: 100.0 mg/kg/injection, schedule: Q01DX009 (ip), vehicle: Klucel (hydroxypropylcellulose) (HPC)): 101 % of control
T/C (dose: 200.0 mg/kg/injection, schedule: Q01DX009 (ip), vehicle: Klucel (hydroxypropylcellulose) (HPC)): 105 % of control
T/C (dose: 400.0 mg/kg/injection, schedule: Q01DX009 (ip), vehicle: Klucel (hydroxypropylcellulose) (HPC)): 97 % of control

CCCC(N)C(=O)c1ccccc1 (stereo not drawn)
T/C [2]: 109 % of control
T/C [3]: 109 % of control

CCNc1ccc(/C=C2\C=Cc3ccccc32)cc1
T/C (dose: 0.39 mg/kg/injection, schedule: Q01DX009 (ip), vehicle: Klucel (hydroxypropylcellulose) (HPC)): 100 % of control
T/C (dose: 0.78 mg/kg/injection, schedule: Q01DX009 (ip), vehicle: Klucel (hydroxypropylcellulose) (HPC)): 105 % of control
T/C (dose: 1.56 mg/kg/injection, schedule: Q01DX009 (ip), vehicle: Klucel (hydroxypropylcellulose) (HPC)): 110 % of control
T/C (dose: 3.12 mg/kg/injection, schedule: Q01DX009 (ip), vehicle: Klucel (hydroxypropylcellulose) (HPC)): 90 % of control
T/C (dose: 6.25 mg/kg/injection, schedule: Q01DX009 (ip), vehicle: olive oil, sesame oil, peanut oil): 113 % of control
T/C [4]: 95 % of control
T/C (dose: 12.5 mg/kg/injection, schedule: Q01DX009 (ip), vehicle: olive oil, sesame oil, peanut oil): 118 % of control
T/C (dose: 25.0 mg/kg/injection, schedule: Q01DX009 (ip), vehicle: olive oil, sesame oil, peanut oil): 118 % of control
T/C (dose: 50.0 mg/kg/injection, schedule: Q01DX009 (ip), vehicle: olive oil, sesame oil, peanut oil): 100 % of control

COc1cc(C2NC(=O)C(C#N)=C(Nc3cccc(C)c3)S2)ccc1O (stereo not drawn)
T/C [5]: 101 % of control
T/C [6]: 114 % of control
T/C [7]: 119 % of control

O=C1c2ccccc2C(=O)N1OC1CCCCO1 (stereo not drawn)
T/C [6]: 91 % of control
T/C [8]: 100 % of control
T/C [7]: 87 % of control
T/C [9]: 108 % of control
T/C [10]: 100 % of control
T/C [11]: 104 % of control

CCNC(C)(C)C(Cl)c1ccc(Cl)s1 (stereo not drawn)
T/C (dose: 25.0 mg/kg/injection, schedule: Q01DX009 (ip), vehicle: Klucel (hydroxypropylcellulose) (HPC)): 91 % of control
T/C [12]: 104 % of control
T/C [1]: 104 % of control
T/C [13]: 101 % of control
T/C [8]: 95 % of control

O=C(OC1C=CCC1)c1ccc([N+](=O)[O-])cc1 (stereo not drawn)
T/C (dose: 100.0 mg/kg/injection, schedule: Q04DX003 (ip), vehicle: Klucel (hydroxypropylcellulose) (HPC)): 100 % of control
T/C (dose: 200.0 mg/kg/injection, schedule: Q04DX003 (ip), vehicle: Klucel (hydroxypropylcellulose) (HPC)): 100 % of control
T/C (dose: 400.0 mg/kg/injection, schedule: Q04DX003 (ip), vehicle: Klucel (hydroxypropylcellulose) (HPC)): 100 % of control

CN(C)N=C(Cc1ccccc1)Cc1ccccc1
T/C (dose: 12.5 mg/kg/injection, schedule: Q04DX003 (ip), vehicle: saline with Tween-80): 108 % of control
T/C [12]: 108 % of control
T/C [13]: 104 % of control

COc1cc(-c2ccc(Nc3ccccc3C(=O)O)c(OC)c2)ccc1N
T/C (dose: 25.0 mg/kg/injection, schedule: Q01DX009 (ip), vehicle: saline with Tween-80): 110 % of control
T/C (dose: 33.0 mg/kg/injection, schedule: Q01DX009 (ip), vehicle: saline with Tween-80): 109 % of control
T/C (dose: 75.0 mg/kg/injection, schedule: Q01DX009 (ip), vehicle: saline with Tween-80): 163 % of control

C1CC[N-]CC1.C1CC[N-]CC1.C1CC[N-]CC1.C1CC[N-]CC1.[Pt+4]
T/C [14]: 110 % of control
T/C [15]: 100 % of control

O=C(O)C(CS(=O)(=O)O)Nc1ncnc2nc[nH]c12 (stereo not drawn)
T/C [16]: 100 % of control
T/C [17]: 100 % of control
T/C [18]: 100 % of control

Nc1cc(Cl)c2[nH]cnc2n1
T/C [14]: 114 % of control
T/C [15]: 100 % of control
T/C [2]: 110 % of control
T/C (dose: 50.0 mg/kg/injection, schedule: Q01DX005 (ip), vehicle: distilled water + Tween-80): 105 % of control
T/C [3]: 115 % of control
T/C [19]: 100 % of control

CC(C)(O)C(Cl)(Cl)Cl
T/C [20]: 115 % of control
T/C [16]: 111 % of control
T/C [17]: 107 % of control

O=[N+]([O-])c1cc(-c2nc3ccccc3[nH]2)cc([N+](=O)[O-])c1
T/C [5]: 110 % of control
T/C [6]: 91 % of control

C[Si](C)(C)O/C=C1/CCOC1=O
T/C [5]: 102 % of control
T/C [6]: 110 % of control
T/C [7]: 119 % of control
T/C [10]: 117 % of control

CC(=O)O[C@H]1[C@H]2O[C@]23[C@@H]2CC[C@@H]4C[C@@H](OC(=O)CCC(=O)O)CC[C@]4(C)[C@H]2CC[C@]3(C)[C@H]1c1ccc(=O)oc1
T/C (dose: 0.13 mg/kg/injection, schedule: Q01DX009 (ip), vehicle: Klucel (hydroxypropylcellulose) (HPC)): 100 % of control
T/C (dose: 0.25 mg/kg/injection, schedule: Q01DX009 (ip), vehicle: Klucel (hydroxypropylcellulose) (HPC)): 101 % of control
T/C (dose: 0.5 mg/kg/injection, schedule: Q01DX009 (ip), vehicle: Klucel (hydroxypropylcellulose) (HPC)): 101 % of control

CS(=O)(=O)OCCN(Cc1ccc(OS(C)(=O)=O)cc1)S(C)(=O)=O
T/C [5]: 102 % of control
T/C [6]: 103 % of control
T/C [8]: 107 % of control
T/C [7]: 110 % of control
T/C [9]: 109 % of control
T/C [10]: 94 % of control
T/C [11]: 111 % of control

NC1CONC1=O (stereo not drawn)
T/C [2]: 90 % of control
T/C (dose: 25.0 mg/kg/injection, schedule: Q04DX003 (ip), vehicle: saline): 104 % of control
T/C [3]: 95 % of control
T/C [20]: 100 % of control
T/C [19]: 90 % of control
T/C [16]: 104 % of control
T/C [17]: 100 % of control
T/C (dose: 400.0 mg/kg/injection, schedule: Q01DX009 (ip), vehicle: saline): 100 % of control
T/C [18]: 100 % of control

NC(=O)c1nn(C2OC(CO)C(O)C2O)c2ncnc(N)c12 (stereo not drawn)
T/C [4]: 118 % of control

CC1OC(OC2C(O)CC(OC3C(O)CC(OC4CCC5(C)C(CCC6C5CCC5(C)C(C7=CC(=O)OC7)CCC65O)C4)OC3C)OC2C)CC(O)C1O (stereo not drawn)
T/C (dose: 0.63 mg/kg/injection, schedule: Q01DX010 (ip), vehicle: saline): 113 % of control
T/C (dose: 1.25 mg/kg/injection, schedule: Q01DX010 (ip), vehicle: saline): 100 % of control
T/C (dose: 2.5 mg/kg/injection, schedule: Q01DX010 (ip), vehicle: saline): 118 % of control
T/C (dose: 5.0 mg/kg/injection, schedule: Q01DX010 (ip), vehicle: saline): 100 % of control

CCOC(=O)C1OC(n2cnc3c(N)ncnc32)C(O)C1O (stereo not drawn)
T/C [14]: 103 % of control
T/C [15]: 94 % of control
T/C [2]: 94 % of control
T/C [3]: 92 % of control

O=c1[nH]c2ccccc2c(=O)n1C1CCCCC1
T/C (dose: 12.5 mg/kg/injection, schedule: Q01DX009 (ip), vehicle: water): 111 % of control
T/C (dose: 12.5 mg/kg/injection, schedule: Q04DX003 (ip), vehicle: water): 96 % of control
T/C (dose: 25.0 mg/kg/injection, schedule: Q01DX009 (ip), vehicle: water): 111 % of control
T/C (dose: 25.0 mg/kg/injection, schedule: Q04DX003 (ip), vehicle: water): 100 % of control
T/C (dose: 50.0 mg/kg/injection, schedule: Q04DX003 (ip), vehicle: water): 107 % of control
T/C (dose: 100.0 mg/kg/injection, schedule: Q01DX009 (ip), vehicle: water): 106 % of control
T/C (dose: 100.0 mg/kg/injection, schedule: Q04DX003 (ip), vehicle: water): 105 % of control
T/C (dose: 200.0 mg/kg/injection, schedule: Q01DX009 (ip), vehicle: water): 101 % of control
T/C (dose: 400.0 mg/kg/injection, schedule: Q01DX009 (ip), vehicle: water): 101 % of control

Reference: PubChem BioAssay AID328 (DTP/NCI, 2004)
